Measurements reported in patent publication US20230352136A1, “SYSTEMS AND METHODS TO EVALUATE DRUG-INDUCED GASTROINTESTINAL DYSRHYTHMIA” (The Chinese University of Hong Kong, priority 2022, published 2023).

What was measured:
[1] = tested on: ileum pacemaker potentials; assay: MEA recording of pacemaker potentials (slow waves), isolated ileum; type: cell-based, Suncus murinus; settings: ileal tissues
Experimental: (§1) Pacemaker potentials were recorded extracellularly on a 60-channel MEA system using full-thickness GI segments isolated from Suncus murinus. Basic slow-wave parameters, including frequency, amplitude, slope, period, and power partitions, were derived. Signal regularity was also evaluated using detrended fluctuation analysis and sample entropy analysis.
(§2) Electrical recordings were taken after the animals were euthanised by carbon dioxide asphyxiation. […] The mesentery was removed, and the lumen contents were flushed with Krebs' medium. Segments (−1 cm) of duodenum, ileum, and colon were then isolated, but the stomach was kept intact. All tissue segments and the entire stomach were incubated in Krebs' medium containing nifedipine (1 μM; Sigma Aldrich, St Louis, MO, USA) for 15 min to inhibit smooth muscle activity. Pacemaker potentials were recorded using an MEA platform (MEA1060 1200×; Multichannel Systems, Reutlingen, Germany) as previously described. Briefly, tissues were placed onto the electrode field of an MEA chip (60-channel, 8×8 configuration, 3D-tip-shaped electrodes with a height of […] and an inter-electrode distance of 200 μm; Ayanda Biosystems SA, Lausanne, Switzerland). Intestinal segments were aligned horizontally to the recording electrode field, while the stomach was oriented with the antrum facing the recording electrode field. The chamber temperature was maintained at 37° C. and the sampling frequency was 1 kHz. […] All data were recorded and saved using MC_Rack (v 4.6.2, Multichannel Systems).
(§3) Data analysis included basic slow-wave feature extraction using a custom automated program. […] The time point of drug administration was automatically identified based on the signal disturbance. The period of signal disturbance (20 s before and 40 s after the peak of the disturbance) was excluded from the analysis. Data were filtered using a passband between 0.1 Hz and 1 Hz and a stopband between 0.01 Hz and 2 Hz. The basic slow-wave features extracted were similar to those extracted in the inventors' previous studies. However, instead of using several templates and scripts written in Microsoft Excel and Spike 2, a one-step automatic and blinded MATLAB programme was used for data analysis. There were four major changes to the data analysis process as compared to the inventors' previous studies. First, auto-identification of the drug disturbance time point was used, rather than manual identification. Second, standardised signal filters were built in MATLAB to match the entire data analysis pipeline. […] Frequency partitioning was performed by segmenting the power spectrum of 0-50 cpm into the following four segments: brady-rhythm (within the range 2-[DF−1] cpm), normal-rhythm ([DF±1] cpm), tachy-rhythm (within the range [DF+1]-40 cpm), and out-of-range frequencies (<2 cpm and >40 cpm). Third, waveforms were identified using the MATLAB ‘findpeaks’ function, with a minimum peak height of […] at baseline and […] after drug treatment, with a step time of 5.4 s for the intestine and 12 s for the stomach. The average peak-to-peak amplitude, slope, and period were derived for all detected waveforms. Fourth, propagation velocity was derived using phase-difference measurements, based on the auto-select seed electrode with the highest percentage of normal rhythms.
(§4) Dominant activation pattern identification included a phase-based analysis performed as previously described (Liu et al., 2021). Briefly, high-frequency spikes with amplitudes greater than […] were masked. Continuous frequencies were identified using continuous wavelet transformation, and the transformed data were used to plot spectrograms. […] High quality data were subjected to Hilbert transformation to identify the phase and frequency of the signals. Individual activation times were clustered using k-means clustering every 20 s and major activation patterns were grouped using a structural similarity index.

[2] = tested on: colon pacemaker potentials; assay: MEA recording of pacemaker potentials (slow waves), isolated colon; type: cell-based, Suncus murinus; settings: colonic tissues
Experimental: as §1, §2, §3, §4

Cl.NCCc1ccc(O)c(O)c1 [dopamine, 3-Hydroxytyramine hydrochloride]
DFA fluctuation function (larger scale 26-46) ([1]; 100 nM, baseline 1.71±0.17, p<0.05, n=6): 1.55±0.13 | DFA fluctuation function (smaller scale 3-25) ([1]; 100 nM, baseline 2.35±0.14, p<0.05, n=6): 2.28±0.11 | waveform period ([1]; 100 nM, baseline 2.66±0.40, p<0.05, n=7): 3.73±1.05 | percentage of dominant patterns (based on post-treatment data, FIG. 3E), second pattern ([1]; 100 nM, baseline 15.6±10.3, p<0.05, n=7): 4.2±4.2% | percentage of dominant patterns (based on post-treatment data, FIG. 3E), third pattern ([1]; 100 nM, baseline 16.8±6.6, p<0.01, n=7): 3.0±2.6% | percentage of dominant baseline activation patterns, third pattern ([1]; 100 nM, baseline 17.2±4.8, p<0.0001, n=7): 2.2±2.6% | percentage of dominant baseline activation patterns, second pattern ([1]; 100 nM, baseline 21.5±1.7, p<0.0001, n=7): 2.6±1.6% | average frequency (AF) ([1]; 100 nM, baseline 23.5±3.0, p<0.05, n=7): 19.4±3.6 cpm | percentage of brady-rhythms ([1]; 100 nM, baseline 31.8±11.7, p<0.05, n=7): 60.0±26.0% | percentage of dominant baseline activation patterns, first pattern ([1]; 100 nM, baseline 32.8±5.7, p<0.01, n=7): 3.8±4.5% | percentage of normal rhythms ([1]; 100 nM, baseline 46.1±5.6, p<0.01, n=7): 4.8±17.0% | amplitude of slow waves ([1]; 100 nM, baseline 165.2±20.5, p<0.001, n=7): 119.2±20.0 μV | slope of waveforms ([1]; 100 nM, baseline 257.5±59.8, p<0.01, n=7): 160.1±42.0 μV s^−1 | dominant power (DP) of slow waves ([1]; 100 nM, baseline 780.4±276.9, p<0.001, n=7): 177.5±83.0 μV^2 | DFA fluctuation function (larger scale 26-46) ([1]; 1 μM, baseline 1.78±0.24, p<0.05, n=8): 1.64±0.28 | number of groups of activation patterns ([1]; 1 μM, baseline 6.3±0.8, p<0.05, n=7): 7±0.8 | percentage of dominant patterns (based on post-treatment data, FIG. 3E), first pattern ([1]; 1 μM, baseline 8.9±9.0, p<0.01, n=6): 31.4±13.7% | percentage of brady-rhythms ([1]; 1 μM, baseline 27.5±7.8, p<0.05, n=7): 46.3±22.7% | percentage of dominant baseline activation patterns, first pattern ([1]; 1 μM, baseline 35.2±6.0, p<0.001, n=6): 13.0±6.7% | percentage of normal rhythms ([1]; 1 μM, baseline 50.6±10.8, p<0.01, n=7): 24.5±11.8% | amplitude of slow waves ([1]; 1 μM, baseline 187.1±76.9, p<0.01, n=7): 138.0±66.2 μV | slope of waveforms ([1]; 1 μM, baseline 300.9±117.5, p<0.01, n=7): 204.4±91.9 μV s^−1 | dominant power (DP) of slow waves ([1]; 1 μM, baseline 1,070.5±745.1, p<0.05, n=7): 460.3±297.0 μV^2 | representative spectrogram (left), effect on DF ([1]; 10 μM): slightly shifted towards a higher frequency | representative spectrogram (right), effect ([1]; 10 μM): extra peaks appearing to the left of the baseline DF | wave fronts counted in representative spatio-temporal map (1 min) ([1]; 10 μM, 26 before treatment): 30 | waveform period ([1]; 10 μM, baseline 2.30±0.18, p<0.05, n=6): 3.05 ± 0.68 s | number of groups of activation patterns ([1]; 10 μM, baseline 9.3±0.7, p<0.05, n=6): 6.9±1.0 | percentage of dominant patterns (based on post-treatment data, FIG. 3E), first pattern ([1]; 10 μM, baseline 17.2±11.5, p<0.05, n=5): 32.3±13.2% | percentage of brady-rhythms ([1]; 10 μM, baseline 32.8±12.9, p<0.05, n=6): 63.3±28.5% | percentage of dominant baseline activation patterns, first pattern ([1]; 10 μM, baseline 35.7±8.4, p<0.05, n=5): 19.2±16.4% | percentage of normal rhythms ([1]; 10 μM, baseline 50.9±9.8, p<0.0001, n=6): 9.2±10.9% | amplitude of slow waves ([1]; 10 μM, baseline 229.6±115.9, p<0.05, n=6): 149.1±56.7 μV | slope of waveforms ([1]; 10 μM, baseline 383.7±185.8, p<0.05, n=6): 238.2±95.7 μV s^−1 | DFA fluctuation function (larger scale 26-46) ([1]; 100 μM, baseline 1.63±0.23, p<0.05, n=7): 1.43±0.21 | DFA fluctuation function (smaller scale 3-25) ([1]; 100 μM, baseline 2.35±0.12, p<0.05, n=7): 2.25±0.05 | percentage of dominant patterns (based on post-treatment data, FIG. 3E), third pattern ([1]; 100 μM, baseline 17.8±7.4, p<0.05, n=4): 6.8±6.1% | percentage of dominant baseline activation patterns, third pattern ([1]; 100 μM, baseline 19.1±2.8, p<0.01, n=4): 5.9±6.6% | percentage of dominant baseline activation patterns, second pattern ([1]; 100 μM, baseline 23.5±2.8, p<0.001, n=4): 5.7±5.1% | percentage of dominant baseline activation patterns, first pattern ([1]; 100 μM, baseline 27.6±4.1, p<0.01, n=4): 9.4±9.5% | dominant frequency (DF), change vs baseline ([1]; 0.1-100 μM, p>0.05, n=6-7): No significant differences | propagation velocities, effect ([1]; 0.1-100 μM, p>0.05, n=6-7): did not affect | average SampEn (larger scale 6-50), effect ([1]; 0.1-100 μM, p>0.05, n=6-8): did not change | average SampEn (smaller scale 1-5), effect ([1]; 0.1-100 μM, p>0.05, n=6-8): did not change | DFA fluctuation function (smaller scale 3-25) ([1]; 1 M, baseline 2.29±0.23, p<0.05, n=8): 2.19±0.20 | waveform period ([1]; 1 M, baseline 2.53±0.50, p<0.05, n=7): 3.10 ± 0.74 s | DFA fluctuation function (smaller scale 3-25) ([1]; 10 M, baseline 2.24±0.32, p<0.05, n=8): 2.13±0.34 | average SampEn (larger scale 6-50) ([2]; 100 nM, baseline 0.33±0.06, p<0.01, n=6): 0.28±0.07 | average SampEn (smaller scale 1-5) ([2]; 100 nM, baseline 0.59±0.03, p<0.01, n=6): 0.62±0.03 | DFA fluctuation function (larger scale 26-46) ([2]; 100 nM, baseline 1.80±0.09, p<0.001, n=6): 1.58±0.11 | DFA fluctuation function (smaller scale 3-25) ([2]; 100 nM, baseline 2.37±0.07, p<0.01, n=6): 2.26±0.06 | average frequency (AF) ([2]; 100 nM, baseline 23.9±2.4, p<0.05, n=7): 23.3±1.6 cpm | DFA fluctuation function (smaller scale 3-25) ([2]; 1 μM, baseline 2.30±0.33, p<0.05, n=8): 2.23±0.34 | number of groups of activation patterns ([2]; 1 μM, baseline 5.4±1.0, p<0.05, n=6): 6.4±1.1 | percentage of tachy-rhythms ([2]; 1 μM, baseline 18.3±12.6, p<0.05, n=6): 55.5±34.8% | percentage of dominant patterns (based on post-treatment data, FIG. 3E), first pattern ([2]; 1 μM, baseline 19.1±12.2, p<0.05, n=6): 39.6±15.6% | percentage of normal rhythms ([2]; 1 μM, baseline 41.4±9.7, p<0.01, n=6): 14.5±18.1% | propagation direction and speed in video (FIGS. 12A-12B) ([2]; 10 μM): relatively constant | representative spectrogram, effect ([2]; 10 μM): extra peaks appeared to the right of the original DF | wave fronts counted in representative spatio-temporal map (1 min) ([2]; 10 μM, 32 before treatment): 32 | average SampEn (smaller scale 1-5) ([2]; 10 μM, baseline 0.57±0.06, p<0.05, n=6): 0.60±0.04 | DFA fluctuation function (smaller scale 3-25) ([2]; 10 μM, baseline 2.24±0.23, p<0.05, n=6): 2.11±0.27 | number of groups of activation patterns ([2]; 10 μM, baseline 6±0.7, p<0.05, n=9): 6.8±1.1 | percentage of normal rhythms ([2]; 10 μM, baseline 42.4±6.9, p<0.05, n=9): 13.1±17.4% | DFA fluctuation function (larger scale 26-46) ([2]; 100 μM, baseline 1.63±0.19, p<0.05, n=10): 1.46±0.21 | DFA fluctuation function (smaller scale 3-25) ([2]; 100 μM, baseline 2.31±0.12): 2.19±0.13 | percentage of dominant patterns (based on post-treatment data, FIG. 3E), third pattern ([2]; 100 μM, baseline 20.3±10.8, p<0.0001, n=5): 7.5±5.8% | percentage of dominant baseline activation patterns, first pattern ([2]; 100 μM, baseline 34.4±3.7, p<0.01, n=4): 11.4±12.9% | percentage of brady-rhythms ([2]; 100 μM, baseline 34.7±9.1, p<0.05, n=6): 53.9±26.8% | percentage of normal rhythms ([2]; 100 μM, baseline 53.1±8.1, p<0.05, n=6): 33.4±23.3% | amplitude of slow waves ([2]; 100 μM, baseline 267.3±80.9, p<0.01, n=6): 199.7±48.8 μV | slope of waveforms ([2]; 100 μM, baseline 439.3±124.3, p<0.001, n=6): 299.0±76.5 μV s^−1 | dominant frequency (DF), change vs baseline ([2]; 0.1-100 μM, p>0.05, n=6-9): No significant differences | dominant power (DP), change vs baseline ([2]; 0.1-100 μM, p>0.05, n=6-9): No significant differences | propagation velocities, effect ([2]; 0.1-100 μM, p>0.05, n=6-9): did not affect | waveform period, change vs baseline ([2]; 0.1-100 μM, p>0.05, n=6-9): No significant differences | average SampEn (smaller scale 1-5) ([2]; 1 M, baseline 0.57±0.06, p<0.01, n=8): 0.59±0.05 | DFA fluctuation function (larger scale 26-46) ([2]; 1 M, baseline 1.74±0.26, p<0.01, n=8): 1.61±0.29 | DFA fluctuation function (larger scale 26-46) ([2]; 10 M, baseline 1.73±0.16, p<0.05, n=6): 1.53±0.19
